Results reported in ChEMBL document CHEMBL4819138, “Promising anti-SARS-CoV-2 drugs by effective dual targeting against the viral and host proteases” (Bioorg Med Chem Lett, 2021).

Tests used:
[1] = molecular target: Replicase polyprotein 1ab (Severe acute respiratory syndrome coronavirus 2) (UniProt P0DTD1); experiment: Inhibition of SARS-CoV-2 papain-like protease at 100 microg/ml relative to control; details: dose 100.0 µg/ml
[2] = molecular target: Replicase polyprotein 1ab (Severe acute respiratory syndrome coronavirus 2) (UniProt P0DTD1); experiment: Inhibition of SARS-CoV-2 main protease at 100 microg/ml relative to control; details: dose 100.0 µg/ml
SARS-CoV-2 = experiment: Antiviral activity against SARS-CoV-2 NRC-03-nhCoV strain infected in Vero E6 cells; assay type: functional, organism-based; details: Severe acute respiratory syndrome coronavirus 2, NRC-03-nhCoV, Vero C1008
Fibroblast = experiment: Cytotoxicity against human fibroblasts cells assessed as cell growth inhibition by MTT assay; assay type: cell-based

| Compound | inhibition [1] [%] | inhibition [2] [%] | IC50 (SARS-CoV-2) [nM] | IC50 (Fibroblast) [nM] |
| --- | --- | --- | --- | --- |
| CCOC(=O)C(Cc1c[nH]c2ccccc12)NC(=O)CCC(=O)Nc1ccc(S(N)(=O)=O)cc1 (configuration not stated) | > 40 | – | – | – |
| COc1cc(C(NC2=NC(=O)C(CC(=O)Nc3ccc(C(=O)O)cc3)S2)c2c(O)[nH]c(=O)[nH]c2=O)ccc1O (configuration not stated) | 56.4 | 31 | 770 | 1670 |
| O=C(CSc1nnc2c(n1)[nH]c1ccccc12)Nc1cccc(S(=O)(=O)N2CCOCC2)c1 | > 40 | – | – | – |
| N=C(N/N=C/c1ccccc1O)c1nonc1NCNc1nonc1C(=N)N/N=C/c1ccccc1O | – | – | 110 | 410 |
| COc1ccc(/C=C\C(=O)NC(=S)Nc2ccc(S(=O)(=O)NC(N)=O)cc2)cc1OC | > 40 | – | – | – |
| COc1cc(CC(C)NCc2cc(NC(=O)c3ccccn3)cc(C(=O)N(C)C)c2)ccc1O (configuration not stated) | > 40 | – | – | – |
| O=C(CSc1nnc(NC2CC2)s1)Nc1ccccc1C(=O)Nc1ccc2c(c1)OCO2 | > 40 | 26.4 | – | – |
